36 compounds from PubChem BioAssay (NCI) can be followed below.

Among the test systems are MDA-N; KM20L2 colon; SNB-78 CNS; RXF-631 renal; DLD-1 colon; DMS 273 small cell lung; DMS 114 small cell lung; HOP-18 NSCLC; P388/ADR leukemia; SN12K1 renal; P388 leukemia.
Holding throughout (assay): NCI tumour cell line growth inhibition, 48 h

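A five-concentration, 48-hour dose response in 96-well plates underlies each endpoint, interpolated linearly between surrounding concentrations. Abbreviation: GI50, concentration required for 50% inhibition of growth. TGI denotes the concentration required for complete inhibition of growth.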

On to `COC(=O)C1(N2CCOCC2)CCC([C@@H](c2ccccc2)C(C)[N+](=O)[O-])C1` (stereo not given in full), for which the TGI with MDA-N is greater than 100 µM.

With `COc1ccc(NC(=O)CC2SC(=Nc3ccc(Cl)cc3C)NC2=O)c([N+](=O)[O-])c1` (stereo not given), the TGI in the test with KM20L2 colon, with SNB-78 CNS, with RXF-631 renal, with DLD-1 colon, in the test on DMS 273 small cell lung and in the test on DMS 114 small cell lung was greater than 100 µM throughout.

In the case of `O=S1c2ccccc2N=C(c2cccs2)CC1c1ccccc1O` (stereo not given), the TGI with KM20L2 colon, in the test on RXF-631 renal, with DLD-1 colon and in the test with DMS 114 small cell lung was greater than 100 µM each time.

The compound `S=C1NC(c2ccccc2)NC(c2ccccc2)S1` (stereo not given) had a TGI in the test with MDA-N greater than 100 µM.

As for `CC1O[C@@H]2CCCCC(=O)[C@]2(C)[C@H]1C` (stereo not given in full), the TGI with KM20L2 colon, with SNB-78 CNS, in the test with RXF-631 renal, with HOP-18 NSCLC, with DLD-1 colon and with DMS 273 small cell lung was greater than 100 µM each time. The compound further showed a TGI with DMS 114 small cell lung greater than 100 µM.

As for `Cc1ccccc1C1SCc2nc3ccccc3n21` (stereo not given), the TGI in the test on SNB-78 CNS, in the test with HOP-18 NSCLC, with DLD-1 colon, with DMS 273 small cell lung and in the test on DMS 114 small cell lung was greater than 100 µM in each case.

`COc1ccc(CC2OC3(CCCCC3)CC3CCCCN32)cc1` (stereo not given): in the test on MDA-N, the TGI is greater than 100 µM.

Take `O=C(NNC(=O)/C(=C/c1cccc([N+](=O)[O-])c1)NC(=O)c1ccccc1)Nc1ccc(Cl)cc1`: the TGI with KM20L2 colon is 32.4 µM; with SNB-78 CNS it was greater than 100 µM; with RXF-631 renal, 23.8 µM; in the test with HOP-18 NSCLC, 34.6 µM; in the test with DLD-1 colon, 26.7 µM; with DMS 273 small cell lung it was 26.1 µM. This compound returned a TGI in the test on DMS 114 small cell lung of 26.9 µM.

`Cc1ccc(O)c(C(=O)/C=C/c2ccccc2)c1` displayed a TGI with MDA-N greater than 100 µM.

As for `C=C1CC2(CC(c3ccccc3C)OC(c3ccccc3C)C2)OC1=O` (stereo not given), the TGI in the test on MDA-N turned out to be 3.32 µM.

In turn, `O=C(C#Cc1ccccc1)N1CCCCC1` came in with a TGI in the test on MDA-N greater than 100 µM.

For the compound `CC(C)(C)c1cc([Si](C)(C)C)c(C#N)c([Si](C)(C)C)c1`, the TGI in the test with KM20L2 colon, in the test with SNB-78 CNS, in the test on HOP-18 NSCLC, with DLD-1 colon, with DMS 273 small cell lung and in the test with DMS 114 small cell lung was greater than 100 µM throughout.

For `NS(=O)(=O)c1ccc(NC(=O)Nc2cccc3ccccc23)cc1`, the TGI with MDA-N was greater than 100 µM.

Consider `CC#CC#C/C=C1/C=CC2(CCCCO2)O1` (stereo not given), for which the TGI in the test with MDA-N is greater than 100 µM.

Compound `Oc1ccc(Cl)cc1N=Nc1c(O)ccc2ccccc12` gave a TGI in the test with MDA-N greater than 100 µM.

On to `O=c1[nH]c(C2CCCCC2)nc2ccc(Cl)cc12`, for which the TGI in the test on KM20L2 colon, in the test on SNB-78 CNS, with DMS 273 small cell lung and in the test with DMS 114 small cell lung was greater than 100 µM in each case.

For the compound `O=Cc1cc2sc(C=O)cc2s1`, the TGI in the test with KM20L2 colon, in the test with SNB-78 CNS, in the test on RXF-631 renal, in the test on DLD-1 colon, in the test with DMS 273 small cell lung and with DMS 114 small cell lung was greater than 100 µM throughout.

Consider `COc1cc(OC)c(OC)cc1/C=C/c1ccc2ccccc2n1`, for which the TGI in the test on MDA-N was greater than 10 µM.

For the compound `O=C(Nc1ccc(-c2cn3ccccc3n2)cc1)c1cc(Br)ccc1O`, in the test with MDA-N, the TGI is greater than 100 µM.

On to `Nc1[nH]c(=S)[nH]c(=O)c1N=Nc1c(Br)cc(S(N)(=O)=O)cc1Br`, for which, in the test on MDA-N, the TGI was greater than 100 µM.

`O=C1/C(=C/c2ccc(C(=O)O)cc2)CNC/C1=C\c1ccc(C(=O)O)cc1`: the TGI in the test on KM20L2 colon, with SNB-78 CNS, with RXF-631 renal, in the test on HOP-18 NSCLC, with DLD-1 colon and in the test with DMS 273 small cell lung was greater than 100 µM each time. The compound further displayed a TGI in the test on DMS 114 small cell lung greater than 100 µM.

As to `OCC1OC(N2CCN(C3OC(CO)C(O)C(O)C3O)CC2)C(O)C(O)C1O` (stereo not given), the TGI with MDA-N is greater than 100 µM.

With `CCCCCCCC(=O)[O-].N.N.N.N.N.[Co+3].[O-][Cl+3]([O-])([O-])[O-]`, the GI50 in the test with KM20L2 colon, with SNB-78 CNS, in the test on DLD-1 colon and in the test with DMS 273 small cell lung was greater than 100 µM in each case. Moreover, the TGI in the test on KM20L2 colon, with SNB-78 CNS, with DLD-1 colon and with DMS 273 small cell lung was greater than 100 µM each time.

`COc1ccc(C2[C@@H](Cl)C(=O)N2c2ccc(OC)cc2)cc1` (stereo not given in full): the TGI in the test with SNB-78 CNS, with DLD-1 colon, in the test with DMS 273 small cell lung and in the test with DMS 114 small cell lung was greater than 100 µM each time.

With `CC1=NN(c2ccccc2)C(=O)C1N=Nc1ccc(Br)cc1C` (stereo not given), the TGI in the test with KM20L2 colon, in the test with SNB-78 CNS, in the test with RXF-631 renal, in the test with HOP-18 NSCLC, in the test with DLD-1 colon and in the test with DMS 273 small cell lung was greater than 100 µM in each case. The compound further yielded a TGI in the test on DMS 114 small cell lung greater than 100 µM.

With `O=S(=O)(O)c1ccc([Se][Se]c2ccc(S(=O)(=O)O)cc2)cc1`, the TGI in the test with KM20L2 colon, in the test with SNB-78 CNS, in the test with HOP-18 NSCLC, in the test with DLD-1 colon, with DMS 273 small cell lung and with DMS 114 small cell lung was greater than 100 µM each time.

`OC(CBr)C(O)C(O)C(O)CBr` (stereo not given): the TGI was greater than 100 µM in the test on KM20L2 colon; greater than 100 µM in the test with SNB-78 CNS; greater than 51.9 µM with P388/ADR leukemia; greater than 100 µM with HOP-18 NSCLC; greater than 100 µM in the test on DLD-1 colon; greater than 100 µM in the test with SN12K1 renal. Moreover, the TGI was greater than 100 µM in the test with MDA-N, greater than 32.4 µM in the test with P388 leukemia, greater than 100 µM with DMS 273 small cell lung and greater than 100 µM in the test with DMS 114 small cell lung.

As to `Clc1cc2ns[s+]c2cc1Cl`, the TGI with KM20L2 colon was greater than 100 µM; in the test on SNB-78 CNS, greater than 100 µM; in the test with RXF-631 renal, greater than 100 µM; in the test on HOP-18 NSCLC it was greater than 69.3 µM; with DLD-1 colon, greater than 56.5 µM; with DMS 273 small cell lung it was greater than 100 µM. The TGI with DMS 114 small cell lung is greater than 100 µM.

In the test with MDA-N, `CCN(CC(O)COc1ccc2c(c1)[n+]([O-])nc(N)[n+]2[O-])C(C)=O` (stereo not given) showed a TGI greater than 100 µM.

In the case of `Oc1ccccc1-c1cnnc(-c2ccccc2O)c1`, the TGI in the test with KM20L2 colon was 84.3 µM; with SNB-78 CNS, greater than 100 µM; in the test with HOP-18 NSCLC, 96.6 µM; with DLD-1 colon it was greater than 100 µM; in the test with DMS 114 small cell lung it was 38.3 µM.

Regarding `NC1=NN(c2ccccc2)C(=O)C1/C(=N\NC(=O)c1cc2ccccc2cc1O)C(=O)Nc1ccc(Cl)c(Cl)c1` (stereo not given), the TGI was 65.8 µM in the test with KM20L2 colon; greater than 100 µM in the test on SNB-78 CNS; greater than 100 µM in the test on HOP-18 NSCLC; greater than 100 µM with DLD-1 colon; 40.7 µM with DMS 273 small cell lung; 82 µM with DMS 114 small cell lung.

As to `Cc1cc(NCCCCCCCCNc2cc(C)nc3cc(N(C)C)ccc23)c2ccc(N(C)C)cc2n1`, the TGI is 27.3 µM in the test on KM20L2 colon, greater than 100 µM in the test on SNB-78 CNS, 16.5 µM in the test with DMS 273 small cell lung and 6.63 µM with DMS 114 small cell lung.

For the compound `CN(N=O)N1C(=O)SCC(c2ccccc2)(c2ccccc2)C1=O`, the TGI with MDA-N was greater than 100 µM.

With `NC(=O)C1CCCN1Cc1ccc2c(c1)OCO2` (stereo not given), the TGI in the test with MDA-N was greater than 100 µM.

As to `CCCCCCCCCCCCCC(=O)OCC1OC(=O)C(O)C1O` (stereo not given), the TGI in the test on KM20L2 colon, in the test with HOP-18 NSCLC, with DLD-1 colon and in the test with DMS 114 small cell lung was greater than 100 µM throughout.

In the test with MDA-N, `O=C(Nc1ccn(C2CCC(COC(c3ccccc3)(c3ccccc3)c3ccccc3)O2)c(=O)n1)c1ccccc1` (stereo not given) came in with a TGI of 10.5 µM.
